This is an account of results in patent US7462600B2, “Macrolides” (Pfizer Inc, priority 2004, dated 2008).

≈ marks a conversion by molar mass, not a printed value. Like-named read-outs stand apart in the source and are kept apart here.

Common to all, as to type: cell-based
Assay [1] deals with Streptococcus pneumoniae 1016. Description: MIC, microtiter broth dilution (NCCLS M100-S14), S. pneumoniae 1016 (susceptible). The method, boiled down:
(§1)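 NCCLS M100-S14 rules govern how the microdilution MICs are interpreted. Each compound starts as a 40 mg/ml solution in DMSO before dilution.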

For assay [2], the system named is Streptococcus pneumoniae 1095. To be noted: microtiter broth dilution. The method, boiled down: as §1
Background: Dilution methods test growth across graded concentrations, often in twofold steps.

In assay [3] the test system is Streptococcus pneumoniae 1175. To be noted: microtiter broth dilution. The method, boiled down: as §1
The subject of assay [4] is Streptococcus pyogenes 1079. As to the kind of experiment: MIC, microtiter broth dilution (NCCLS M100-S14), S. pyogenes 1079 (ermB). Put shortly: as §1
Assay [5] has as its system Haemophilus influenzae 1218. As to the kind of experiment: MIC, microtiter broth dilution (NCCLS M100-S14), H. influenzae 1218 (susceptible). The method, boiled down: as §1
Where [6] appears, read: S. pneumoniae 1016 (susceptible).
[7] abbreviates: H. influenzae 1218 (susceptible).

In the case of `CCC1OC(=O)C(C)C(=O)C(C)C(OC2OC(C)CC(N(C)C)C2O)C(C)(OC)CC(C)C(=O)C(C)C2N(C3CN(Cc4ccnc5cccnc45)C3)C(=O)OC12C` (centres unmarked) [Example 1.26, 3-descladinosyl-11,12-dideoxy-6-O-methyl-3-oxo-12,11-(oxycarbonyl-(1-((1,5-naphthyridin4-yl)-methyl)-azetidin-3-yl)-imino)-erythromycin A], the “MIC S. pneumo. 1016” value in assay [1] (Streptococcus pneumoniae 1016) was less than 0.06 µg/mL. The “MIC S. pneumo. 1095” value in assay [2] (Streptococcus pneumoniae 1095) is less than 0.06 µg/mL. Besides, the “MIC S. pneumo. 1175” value in assay [3] (Streptococcus pneumoniae 1175) was less than 0.06 µg/mL. For the same molecule, the “MIC S. pyogenes 1079” value in assay [4] (Streptococcus pyogenes 1079) stood at 1 µg/mL (≈ 1.23 µM). Further, the “MIC H. influenzae 1218” value in assay [5] (Haemophilus influenzae 1218) turned out to be 0.38 µg/mL (≈ 0.469 µM).

Turning to `CCC1OC(=O)C(C)C(=O)C(C)C(OC2OC(C)CC(N(C)C)C2O)C(C)(OC)CC(C)C(=O)C(C)C2N(CC3C4CN(C(=O)c5cc(F)ccc5F)CC43)C(=O)OC12C` (centres unmarked) [16.03], the “MIC S. pneumo. 1016” value in assay [1] (setting [6]) stood at 0.01 µg/mL (≈ 0.0118 µM). Also, the “MIC S. pneumo. 1095” value in assay [2] (S. pneumoniae 1095 (ermB)) was 1.56 µg/mL (≈ 1.84 µM). The “MIC S. pneumo. 1175” value in assay [3] (S. pneumoniae 1175 (mefA)) is 0.5 µg/mL (≈ 0.59 µM). Also, in assay [4] (S. pyogenes 1079 (ermB)), the “MIC S. pyogenes 1079” value worked out at 50 µg/mL (≈ 59 µM). In addition, the “MIC H. influenzae 1218” value in assay [5] (setting [7]) came to 0.5 µg/mL (≈ 0.59 µM).

On to `CCC1OC(=O)C(C)C(=O)C(C)C(OC2OC(C)CC(N(C)C)C2O)C(C)(OC)CC(C)C(=O)C(C)C2N(CC3CCCN3C(=O)c3ccnc4ccccc34)C(=O)OC12C` (centres unmarked) [12.08], for which the “MIC S. pneumo. 1016” value in assay [1] (setting [6]) was less than 0.06 µg/mL. Besides, the “MIC S. pneumo. 1095” value in assay [2] (S. pneumoniae 1095 (ermB)) amounted to 1 µg/mL (≈ 1.18 µM). For the same molecule, the “MIC S. pneumo. 1175” value in assay [3] (S. pneumoniae 1175 (mefA)) was determined as 2 µg/mL (≈ 2.35 µM). Also, the “MIC S. pyogenes 1079” value in assay [4] (S. pyogenes 1079 (ermB)) is greater than 64.00 µg/mL. For the same molecule, in assay [5] (setting [7]), the “MIC H. influenzae 1218” value amounted to 16 µg/mL (≈ 18.8 µM).

In the case of `CCC1OC(=O)C(C)C(=O)C(C)C(OC2OC(C)CC(N(C)C)C2O)C(C)(OC)CC(C)C(=O)C(C)C2N(C3CN(S(=O)(=O)c4ccc(C)c5ncccc45)C3)C(=O)OC12C` (centres unmarked) [Example 3.111, 3-descladinosyl-11,12-dideoxy-6-O-methyl-3-oxo-12,11-(oxycarbonyl-(1-(8-methylquinoline-5-sulfonyl)-azetidin-3-yl)-imino)erythromycin A], the “MIC S. pneumo. 1016” value in assay [1] (Streptococcus pneumoniae 1016) is less than 0.063 µg/mL. Further, the “MIC S. pneumo. 1095” value in assay [2] (Streptococcus pneumoniae 1095) is less than 0.063 µg/mL. For the same molecule, in assay [3] (Streptococcus pneumoniae 1175), the “MIC S. pneumo. 1175” value was less than 0.063 µg/mL. Besides, the “MIC S. pyogenes 1079” value in assay [4] (Streptococcus pyogenes 1079) came out at 1 µg/mL (≈ 1.15 µM). Besides, the “MIC H. influenzae 1218” value in assay [5] (Haemophilus influenzae 1218) is 0.5 µg/mL (≈ 0.573 µM).

Regarding `CCC1OC(=O)C(C)C(=O)C(C)C(OC2OC(C)CC(N(C)C)C2O)C(C)(OC)CC(C)C(=O)C(C)C2N(C3CN(S(=O)(=O)c4cn(C)c(C)n4)C3)C(=O)OC12C` (centres unmarked) [Example 3.28], the “MIC S. pneumo. 1016” value in assay [1] (Streptococcus pneumoniae 1016) was less than 0.06 µg/mL. Moreover, the “MIC S. pneumo. 1095” value in assay [2] (Streptococcus pneumoniae 1095) was less than 0.06 µg/mL. Moreover, the “MIC S. pneumo. 1175” value in assay [3] (Streptococcus pneumoniae 1175) was found to be 4 µg/mL (≈ 4.84 µM). Further, the “MIC S. pyogenes 1079” value in assay [4] (Streptococcus pyogenes 1079) was greater than 64.00 µg/mL. In addition, in assay [5] (Haemophilus influenzae 1218), the “MIC H. influenzae 1218” value was 1 µg/mL (≈ 1.21 µM).

In the case of `CCC1OC(=O)C(C)C(=O)C(C)C(OC2OC(C)CC(N(C)C)C2O)C(C)(OC)CC(C)C(=O)C(C)C2N(C3CN(C(=O)c4cccc5[nH]c(C)nc45)C3)C(=O)OC12C` (centres unmarked) [Example 2.02], in assay [1] (Streptococcus pneumoniae 1016), the “MIC S. pneumo. 1016” value was less than 0.06 µg/mL. The “MIC S. pneumo. 1095” value in assay [2] (Streptococcus pneumoniae 1095) was greater than 64.00 µg/mL. Moreover, the “MIC S. pneumo. 1175” value in assay [3] (Streptococcus pneumoniae 1175) amounted to 2 µg/mL (≈ 2.42 µM). Moreover, the “MIC S. pyogenes 1079” value in assay [4] (Streptococcus pyogenes 1079) was greater than 64.00 µg/mL. Also, the “MIC H. influenzae 1218” value in assay [5] (Haemophilus influenzae 1218) was 2 µg/mL (≈ 2.42 µM).

Take `CCC1OC(=O)C(C)(F)C(=O)C(C)C(OC2OC(C)CC(N(C)C)C2O)C(C)(OC)CC(C)C(=O)C(C)C2N(CC3CCCN3C(=O)c3ccc4cccnc4n3)C(=O)OC12C` (centres unmarked) [10.30]: the “MIC S. pneumo. 1016” value in assay [1] (setting [6]) was less than 0.06 µg/mL. Besides, the “MIC S. pneumo. 1095” value in assay [2] (S. pneumoniae 1095 (ermB)) is less than 0.06 µg/mL. Further, the “MIC S. pneumo. 1175” value in assay [3] (S. pneumoniae 1175 (mefA)) came to 0.12 µg/mL (≈ 0.138 µM). Further, the “MIC S. pyogenes 1079” value in assay [4] (S. pyogenes 1079 (ermB)) came out at 32 µg/mL (≈ 36.8 µM). In assay [5] (setting [7]), the “MIC H. influenzae 1218” value stood at 2 µg/mL (≈ 2.3 µM).

On to `CCC1OC(=O)C(C)C(=O)C(C)C(OC2OC(C)CC(N(C)C)C2O)C(C)(OC)CC(C)C(=O)C(C)C2N(CC3CCCN3Cc3ccc(OC)nc3)C(=O)OC12C` (centres unmarked) [12.03], for which the “MIC S. pneumo. 1016” value in assay [1] (setting [6]) was less than 0.06 µg/mL. In assay [2] (S. pneumoniae 1095 (ermB)), the “MIC S. pneumo. 1095” value was greater than 64.00 µg/mL. Besides, in assay [3] (S. pneumoniae 1175 (mefA)), the “MIC S. pneumo. 1175” value was determined as 0.5 µg/mL (≈ 0.612 µM). Further, in assay [4] (S. pyogenes 1079 (ermB)), the “MIC S. pyogenes 1079” value was greater than 64.00 µg/mL. Besides, the “MIC H. influenzae 1218” value in assay [5] (setting [7]) stood at 4 µg/mL (≈ 4.9 µM).

With `CCC1OC(=O)C(C)C(=O)C(C)C(OC2OC(C)CC(N(C)C)C2O)C(C)(OC)CC(C)C(=O)C(C)C2N(CC3CN(C(=O)c4cccc5ncoc45)C3)C(=O)OC12C.O=CO` (centres unmarked) [4.46], the “MIC S. pneumo. 1016” value in assay [1] (Streptococcus pneumoniae 1016) is less than 0.06 µg/mL. Also, the “MIC S. pneumo. 1095” value in assay [2] (Streptococcus pneumoniae 1095) amounted to 0.5 µg/mL. In assay [3] (Streptococcus pneumoniae 1175), the “MIC S. pneumo. 1175” value is less than 0.06 µg/mL. The “MIC S. pyogenes 1079” value in assay [4] (Streptococcus pyogenes 1079) came to 64 µg/mL. In assay [5] (Haemophilus influenzae 1218), the “MIC H. influenzae 1218” value came out at 1 µg/mL.

`CCC1OC(=O)C(C)C(=O)C(C)C(OC2OC(C)CC(N(C)C)C2O)C(C)(OC)CC(C)C(=O)C(C)C2N(CC3CCCN3C(=O)c3nccc4ccccc34)C(=O)OC12C.O=CO` (centres unmarked) [10.17]: in assay [1] (setting [6]), the “MIC S. pneumo. 1016” value was less than 0.06 µg/mL. For the same molecule, the “MIC S. pneumo. 1095” value in assay [2] (S. pneumoniae 1095 (ermB)) was less than 0.06 µg/mL. Moreover, in assay [3] (S. pneumoniae 1175 (mefA)), the “MIC S. pneumo. 1175” value came to 0.12 µg/mL. Further, the “MIC S. pyogenes 1079” value in assay [4] (S. pyogenes 1079 (ermB)) is greater than 64.00 µg/mL. Moreover, the “MIC H. influenzae 1218” value in assay [5] (setting [7]) is 0.5 µg/mL.
